Reference: US20230043863A1, “HETEROAROMATIC DERIVATIVES FOR USE AS REGULATOR, PREPARATION METHOD THEREFOR AND USE THEREOF” (JIANGSU HANSOH PHARMACEUTICAL GROUP CO., LTD., priority 2018, published 2023)
Read-outs that look alike come from different tables or passages of the source.

Tests used:
JAK3 = target: T1, JAK3 (Homo sapiens, UniProt P52333); assay: JAK kinase activity inhibition, TR-FRET (JAK3); type: biochemical; conditions: TR-FRET kinase assay
T1 sequence (P52333 1-1124): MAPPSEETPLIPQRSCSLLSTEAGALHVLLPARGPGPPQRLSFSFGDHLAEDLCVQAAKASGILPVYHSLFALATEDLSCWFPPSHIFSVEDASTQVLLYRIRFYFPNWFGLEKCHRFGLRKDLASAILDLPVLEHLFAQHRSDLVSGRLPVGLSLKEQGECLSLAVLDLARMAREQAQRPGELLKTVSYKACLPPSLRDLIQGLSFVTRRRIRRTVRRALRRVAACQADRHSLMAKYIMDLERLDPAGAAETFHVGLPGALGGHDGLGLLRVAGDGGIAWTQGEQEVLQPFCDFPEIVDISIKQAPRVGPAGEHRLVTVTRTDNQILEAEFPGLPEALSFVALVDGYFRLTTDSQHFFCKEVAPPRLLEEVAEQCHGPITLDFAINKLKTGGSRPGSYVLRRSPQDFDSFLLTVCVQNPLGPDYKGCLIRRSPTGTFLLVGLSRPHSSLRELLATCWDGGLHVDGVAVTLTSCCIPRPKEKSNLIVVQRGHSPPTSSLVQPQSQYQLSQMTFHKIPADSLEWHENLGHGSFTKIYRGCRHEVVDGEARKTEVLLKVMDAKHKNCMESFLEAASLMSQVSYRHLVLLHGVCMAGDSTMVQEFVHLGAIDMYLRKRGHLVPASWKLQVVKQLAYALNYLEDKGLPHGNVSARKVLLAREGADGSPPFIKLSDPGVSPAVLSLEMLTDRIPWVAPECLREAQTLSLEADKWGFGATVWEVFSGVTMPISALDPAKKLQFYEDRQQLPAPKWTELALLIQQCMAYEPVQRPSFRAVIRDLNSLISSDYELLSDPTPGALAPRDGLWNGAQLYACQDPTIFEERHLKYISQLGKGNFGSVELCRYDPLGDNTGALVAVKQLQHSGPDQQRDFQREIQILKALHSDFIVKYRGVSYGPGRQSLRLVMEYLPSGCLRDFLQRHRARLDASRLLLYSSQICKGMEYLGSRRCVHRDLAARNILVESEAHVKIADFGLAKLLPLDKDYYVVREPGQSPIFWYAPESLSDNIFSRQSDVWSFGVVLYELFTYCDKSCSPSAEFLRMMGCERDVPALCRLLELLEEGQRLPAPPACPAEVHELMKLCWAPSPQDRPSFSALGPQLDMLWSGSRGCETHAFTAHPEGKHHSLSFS
Experimental: (§1) Experimental objective: The objective of this test is to test the inhibitory effect of the compound on JAK kinase activity.
(§2) Experimental method: the fluorescence resonance energy transfer (TR-FRET) method was used to test the inhibitory effect of the compound on JAK kinase activity, and the half inhibitory concentration IC50 of the compound on JAK kinase activity was obtained.
(§3) Kinase reaction was carried out in a white 384-well plate (PerkinElmer). 1-5 μL of different concentrations of the compound diluted with DMSO and ddH2O was added into each well, and 1-5 μL of the corresponding solvent was added to the positive control wells, followed by addition of 0.1-20 nM JAK kinase solution diluted with 1-5 μL of kinase buffer (HEPES 50-250 mM, MgCl2 5-20 mM, etc.) was added to each well. 1-5 μL of kinase buffer was added to the negative control well. 1-5 μL of substrate mixture containing peptide substrate and ATP was added. The plate was incubated at room temperature for 0.5-5 hours. […], EDTA and detection solution containing labeled antibody was added, and then the plate was incubated at room temperature for another 1-24 hours. The fluorescence signal value at about 620 nm and 665 nm of each well was measured by BioTek Synergy H1 plate reader, and the inhibition rate was calculated by the fluorescence signal value. According to the inhibition rate of different concentrations, the IC50 of the compound was obtained by curve fitting.
(§4) The percentage inhibition data of the wells treated with the compound was calculated with the positive control wells (DMSO control wells) and negative control wells (no kinase added) on the plate {% inhibition rate=100-[(test compound value-negative control value)]/(Positive control value-negative control value)×100}. IC50 value was calculated by using GraphPad prism to fit the data of different concentrations and corresponding percentage inhibition rates to a 4-parameter non-linear logic formula.

TYK2 = TYK2 (Homo sapiens, UniProt P29597); assay: JAK kinase activity inhibition, TR-FRET (TYK2); type: biochemical; conditions: TR-FRET kinase assay
Summary of the method: (§5)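 TR-FRET read (≈620 and 665 nm) after EDTA quench and 1-24 h antibody detection at RT. Kinase 0.1-20 nM, peptide substrate + ATP, 0.5-5 h RT reaction in HEPES 50-250 mM, MgCl2 5-20 mM. IC50 from 4-parameter fit vs DMSO and no-kinase controls.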

JAK1 = JAK1 (Homo sapiens, UniProt P23458); assay: JAK kinase activity inhibition, TR-FRET (JAK1); type: biochemical; conditions: TR-FRET kinase assay
Summary of the method: as §5

JAK2 = JAK2 (Homo sapiens, UniProt O60674); assay: JAK kinase activity inhibition, TR-FRET (JAK2); type: biochemical; conditions: TR-FRET kinase assay
Experimental: as §1, §2, §3, §4

[1] = Balb/C mouse pharmacokinetics (plasma, colon, ileum); type: in vivo; conditions: male, po, Balb/C mice, p.o. 5 mg/kg; for Cmax: read-out: Blood concentration Cmax; for Tmax: read-out: Time to peak tmax; for AUC(0-t): read-out: Curve area AUC0-t; for MRT: read-out: Mean detention time MRT; for AUC(0-inf): read-out: Curve area AUC0-∞; for half-life: read-out: Half life period t1/2 (converted)
Excerpt: Balb/C mouse was used as the test animal, the pharmacokinetic behavior in mice (plasma and colon, ileum tissue) was studied after oral administering the embodiment 1, embodiment 60, embodiment 169, embodiment 170, embodiment 171, embodiment 179, embodiment 191, embodiment 213, embodiment 214, embodiment 237, embodiment 238, embodiment 244, embodiment 246, embodiment 247, embodiment 257, embodiment 260, embodiment 262, embodiment 263, embodiment 267, embodiment 277, embodiment 278, embodiment 279, embodiment 288, embodiment 295, embodiment 299 and embodiment 301 at a dose of 5 mg/kg. After analyzing the drug concentration in the colon and ileum, the ratio of the drug concentration in the colon to that in ileum, and the ratio of the drug concentration in the colon to that in the plasma, the compounds with excellent PK were selected for further research.
12 Balb/C mice in each group, male, Shanghai Jiesjie Experimental Animal Co., Ltd., animal production license number (SCXK (Shanghai) 2013-0006 N0.311620400001794).
12 Balb/C mice in each group, male; p.o. after one night fast; the dose was 5 mg/kg; the administration volume was 10 mL/kg.
At 0, 0.5, 1, 2, 3, 5 and 7 hours before and after the administration, the mice were executed by CO2 and 0.2 mL of blood was collected from the heart, placed in an EDTA-K2 test tube, and centrifuged at 6000 rpm at 4° C. for 6 minutes to separate the plasma, which was then stored at −80° C. The ileum was taken close to the cecum end with a length of about 4-5 cm, and the colon was also taken close to the cecum end with a length of about 2-3 cm, weighed and placed in a 2 mL centrifuge tube, then stored at −80° C.
1) 40 uL of plasma sample was precipitated by adding 160 uL of acetonitrile, mixed and centrifuged at 3500×g for 5-20 minutes.
2) 30 μL of plasma and intestinal homogenate sample were precipitated by adding 90 of acetonitrile containing internal standard (100 ng/mL), mixed and centrifuged at 13000 rpm for 8 minutes.
3) 70 μL of the supernatant solution after treatment was collected and 70 μL of water was added thereto, vortexed and mixed for 10 minutes, and then 20 μL was collected to analyze the concentration of the test compound by LC/MS/MS. LC/MS/MS analysis instrument: AB Sciex API 4000 Qtrap.
Liquid phase conditions: Shimadzu LC-20AD Pump
Chromatographic column: Agilent ZORBAX XDB-C18 (50×2.1 mm, 3.5 μm) mobile phase: 0.1% formic acid aqueous solution as A solution, acetonitrile as B solution
Elution time: 0-4.0 minutes, the eluent is as follows:
The main pharmacokinetic parameters were calculated with WinNonlin 6.1, and the results of mouse pharmacokinetic experiments are shown in Table 3:
NA refers to none detected or not being tested (the detection limit of blood concentration was 1 ng/mL, when the Cmax in the blood test is NA, then NA in the blood test index refers to none detected; when the Cmax in the blood test is higher than the quantitative limit 1 ng/mL, then NA in the blood test index refers to not being tested; NA in the tissues (colon and ileum) refers to not being tested).

[2] = system: JAK-STAT signal pathway of U266 cells; assay: Inhibition of cellular JAK-STAT signal pathway (STAT3 phosphorylation) in U266 cells; type: cell-based, human; conditions: Homo sapiens, U-266, INF-a 1000 U/mL stimulation
Summary of the method: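 U266 cells (100-300 K/well) preincubated 2 h at room temperature with serially diluted compound, then stimulated 15 min with IFN-α at 1000 U/mL final. After lysis, STAT3 phosphorylation read by LANCE Ultra TR-FRET (Eu antibody 0.5 nM, ULight antibody 5 nM, overnight) at 665 nm; IC50 from 4-parameter fit of inhibition versus DMSO and negative controls.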

TYK2, sequence (P29597 whole entry): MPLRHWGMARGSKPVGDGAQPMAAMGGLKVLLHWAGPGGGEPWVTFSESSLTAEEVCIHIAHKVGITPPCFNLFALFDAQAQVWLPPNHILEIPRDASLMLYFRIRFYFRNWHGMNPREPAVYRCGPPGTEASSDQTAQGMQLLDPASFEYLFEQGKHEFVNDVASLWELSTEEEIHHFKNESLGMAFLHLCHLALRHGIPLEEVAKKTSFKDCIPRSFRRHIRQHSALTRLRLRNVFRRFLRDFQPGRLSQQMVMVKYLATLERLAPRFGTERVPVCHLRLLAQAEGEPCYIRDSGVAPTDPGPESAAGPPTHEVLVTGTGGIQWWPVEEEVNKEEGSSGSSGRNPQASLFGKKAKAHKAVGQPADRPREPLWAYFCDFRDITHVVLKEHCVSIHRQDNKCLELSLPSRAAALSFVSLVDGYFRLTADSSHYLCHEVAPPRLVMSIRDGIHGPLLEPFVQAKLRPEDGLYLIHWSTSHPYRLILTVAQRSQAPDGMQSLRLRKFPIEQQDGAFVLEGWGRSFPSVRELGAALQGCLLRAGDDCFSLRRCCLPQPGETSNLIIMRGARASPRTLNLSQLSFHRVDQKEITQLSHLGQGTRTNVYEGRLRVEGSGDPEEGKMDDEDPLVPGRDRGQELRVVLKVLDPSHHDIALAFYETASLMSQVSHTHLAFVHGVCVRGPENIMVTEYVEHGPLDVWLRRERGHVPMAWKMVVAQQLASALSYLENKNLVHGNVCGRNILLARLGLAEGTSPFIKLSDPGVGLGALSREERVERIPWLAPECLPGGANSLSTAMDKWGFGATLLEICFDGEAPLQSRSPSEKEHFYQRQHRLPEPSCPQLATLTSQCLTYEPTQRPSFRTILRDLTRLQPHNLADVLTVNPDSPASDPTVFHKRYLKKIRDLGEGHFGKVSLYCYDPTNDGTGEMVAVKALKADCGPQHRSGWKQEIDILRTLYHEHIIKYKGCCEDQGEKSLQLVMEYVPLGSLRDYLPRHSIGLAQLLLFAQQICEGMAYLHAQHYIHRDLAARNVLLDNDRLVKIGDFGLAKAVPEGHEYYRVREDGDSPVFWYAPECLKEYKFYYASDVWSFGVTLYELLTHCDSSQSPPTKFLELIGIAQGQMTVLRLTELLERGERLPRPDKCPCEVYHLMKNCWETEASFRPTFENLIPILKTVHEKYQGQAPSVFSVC
JAK1, sequence (P23458 whole entry): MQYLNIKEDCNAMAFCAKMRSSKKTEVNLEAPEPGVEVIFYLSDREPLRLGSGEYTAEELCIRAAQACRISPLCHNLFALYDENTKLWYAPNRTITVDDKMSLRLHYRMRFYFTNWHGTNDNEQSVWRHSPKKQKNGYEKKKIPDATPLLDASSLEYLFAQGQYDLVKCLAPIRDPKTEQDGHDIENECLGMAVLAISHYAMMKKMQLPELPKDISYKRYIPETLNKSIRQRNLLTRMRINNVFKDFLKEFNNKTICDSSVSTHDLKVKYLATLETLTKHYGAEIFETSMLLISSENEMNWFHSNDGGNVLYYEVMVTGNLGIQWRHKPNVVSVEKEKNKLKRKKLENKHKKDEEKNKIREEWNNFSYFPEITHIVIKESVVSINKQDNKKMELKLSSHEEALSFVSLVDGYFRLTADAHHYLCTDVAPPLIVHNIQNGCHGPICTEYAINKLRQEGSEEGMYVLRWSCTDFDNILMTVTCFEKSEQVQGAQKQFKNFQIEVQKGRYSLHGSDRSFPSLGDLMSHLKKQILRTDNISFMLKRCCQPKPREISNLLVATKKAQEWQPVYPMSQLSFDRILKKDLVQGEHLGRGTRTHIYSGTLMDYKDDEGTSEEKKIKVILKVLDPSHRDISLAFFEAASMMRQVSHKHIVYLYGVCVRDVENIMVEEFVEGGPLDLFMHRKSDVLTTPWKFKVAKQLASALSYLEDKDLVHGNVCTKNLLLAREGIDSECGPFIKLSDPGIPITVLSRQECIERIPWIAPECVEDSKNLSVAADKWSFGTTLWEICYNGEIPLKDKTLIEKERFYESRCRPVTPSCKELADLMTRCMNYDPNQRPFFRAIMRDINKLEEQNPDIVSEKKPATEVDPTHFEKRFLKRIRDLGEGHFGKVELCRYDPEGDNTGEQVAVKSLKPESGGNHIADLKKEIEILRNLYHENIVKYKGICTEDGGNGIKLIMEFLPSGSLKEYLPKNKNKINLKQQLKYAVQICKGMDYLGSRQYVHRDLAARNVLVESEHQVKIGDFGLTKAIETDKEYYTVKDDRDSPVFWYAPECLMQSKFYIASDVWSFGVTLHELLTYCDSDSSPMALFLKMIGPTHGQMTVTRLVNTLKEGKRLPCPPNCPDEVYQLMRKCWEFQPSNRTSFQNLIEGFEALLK
JAK2, sequence (O60674 whole entry): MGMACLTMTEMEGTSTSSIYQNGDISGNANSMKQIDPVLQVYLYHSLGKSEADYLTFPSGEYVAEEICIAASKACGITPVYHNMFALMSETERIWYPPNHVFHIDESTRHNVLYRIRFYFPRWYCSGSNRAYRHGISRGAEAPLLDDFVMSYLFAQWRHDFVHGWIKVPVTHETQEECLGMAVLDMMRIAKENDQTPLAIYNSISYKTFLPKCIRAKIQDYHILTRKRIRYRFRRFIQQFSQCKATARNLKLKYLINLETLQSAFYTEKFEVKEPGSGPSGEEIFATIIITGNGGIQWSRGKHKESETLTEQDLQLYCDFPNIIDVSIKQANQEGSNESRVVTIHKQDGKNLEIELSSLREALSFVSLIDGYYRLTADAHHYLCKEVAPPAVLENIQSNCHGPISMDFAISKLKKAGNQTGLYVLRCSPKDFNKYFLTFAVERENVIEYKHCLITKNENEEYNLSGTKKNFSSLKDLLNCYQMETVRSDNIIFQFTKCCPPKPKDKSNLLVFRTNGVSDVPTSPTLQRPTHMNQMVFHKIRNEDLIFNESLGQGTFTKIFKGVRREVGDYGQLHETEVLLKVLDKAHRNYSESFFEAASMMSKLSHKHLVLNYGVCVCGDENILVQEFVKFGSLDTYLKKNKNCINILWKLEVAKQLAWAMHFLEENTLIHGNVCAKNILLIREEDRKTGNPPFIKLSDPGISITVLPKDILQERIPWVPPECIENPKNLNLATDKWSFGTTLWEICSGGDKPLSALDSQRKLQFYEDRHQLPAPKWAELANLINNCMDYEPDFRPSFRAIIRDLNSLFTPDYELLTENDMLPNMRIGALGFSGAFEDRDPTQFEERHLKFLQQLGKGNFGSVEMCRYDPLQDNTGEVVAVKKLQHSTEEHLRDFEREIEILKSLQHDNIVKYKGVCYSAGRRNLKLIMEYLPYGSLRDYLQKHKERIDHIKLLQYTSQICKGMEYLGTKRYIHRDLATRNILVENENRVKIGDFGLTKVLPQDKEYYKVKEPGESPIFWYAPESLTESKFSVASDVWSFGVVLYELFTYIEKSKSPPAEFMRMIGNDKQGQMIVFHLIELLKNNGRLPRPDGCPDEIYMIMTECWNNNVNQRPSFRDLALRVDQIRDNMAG

Work on `N#CCCN1[C@@H]2CC[C@H]1C[C@H](Nc1nc(Nc3ncc(CO)s3)cc3ncccc13)C2` [Embodiment 2] yielded an IC50 (JAK3) of 8.95 nM, an IC50 (TYK2) of 2.3 nM and an IC50 (JAK1) of 0.11 nM. The IC50 (JAK2) was 0.53 nM.
`Cc1cc(Nc2nc(N[C@@H]3C[C@H]4CC[C@@H](C3)N4CCC#N)nc3cnccc23)n[nH]1` [Embodiment 173, 3-((3-exo)-3-((4-((5-methyl-1H-pyrazol-3-yl)amino)pyrido[3,4-d]pyrimidin-2-yl)amino)-8-azabicyclo[3.2.1]oct-8-yl)propionitrile] showed an IC50 (JAK3) of 26.3 nM, an IC50 (TYK2) of 0.84 nM and an IC50 (JAK1) of 1.07 nM. It also gave an IC50 (JAK2) of 1.15 nM.
`Cc1cc(Nc2nc(N[C@@H]3C[C@H]4CC[C@@H](C3)N4CCC#N)nc3cc(N4CCOCC4)ccc23)n[nH]1` [Embodiment 191, 3-((3-exo)-3-((4-((5-methyl-1H-pyrazol-3-yl)amino)-7-morpholinoquinazolin-2-yl)amino)-8-azabicyclo[3.2.1]oct-8-yl)propionitrile] showed an IC50 (TYK2) of 0.94 nM, a Cmax ([1]; plasma, blood) of 0.81 ng/mL and a Tmax ([1]; plasma, blood) of 1 h. It also gave a Cmax ([1]; colon) of 3350 ng/mL, an AUC(0-t) ([1]; colon) of 10600 ng·h/mL and an MRT ([1]; colon) of 4.59 h. For the same compound, the Tmax ([1]; colon) was 5 h, the Cmax ([1]; ileum) was 32600 ng/mL and the AUC(0-t) ([1]; ileum) was 51500 ng·h/mL. It also gave an AUC(0-inf) ([1]; ileum) of 51700 ng·h/mL, a half-life ([1]; ileum) of 1.39 h and an MRT ([1]; ileum) of 1.13 h. It also gave a Tmax ([1]; ileum) of 1 h, an IC50 (JAK1) of 0.41 nM and an IC50 [2] of 2.8 nM.
For `Cc1cc(Nc2nc(N[C@@H]3C[C@H]4CCC[C@@H](C3)N4C(=O)c3nccn3C)nc3sccc23)n[nH]1` [Embodiment 263, (1-methyl-1H-imidazol-2-yl) ((3-exo)-3-((4-((5-methyl-1H-pyrazol-3-yl)amino)thieno[2,3-d]pyrimidin-2-yl)amino)-9-azabicyclo[3.3.1]non-9-yl)methanone], the IC50 (TYK2) was 0.22 nM, the Cmax ([1]; plasma, blood) was 12.7 ng/mL and the AUC(0-t) ([1]; plasma, blood) was 57.6 ng·h/mL. It also gave an MRT ([1]; plasma, blood) of 3.51 h, a Tmax ([1]; plasma, blood) of 3 h and a Cmax ([1]; colon) of 5540 ng/mL. For the same compound, the AUC(0-t) ([1]; colon) was 15500 ng·h/mL, the MRT ([1]; colon) was 3.58 h and the Tmax ([1]; colon) was 3 h. For the same compound, the Cmax ([1]; ileum) was 5490 ng/mL, the AUC(0-t) ([1]; ileum) was 9910 ng·h/mL and the AUC(0-inf) ([1]; ileum) was 9940 ng·h/mL. It also gave a half-life ([1]; ileum) of 0.82 h, an MRT ([1]; ileum) of 1.36 h and a Tmax ([1]; ileum) of 1 h. It also gave an IC50 (JAK1) of 0.11 nM and an IC50 [2] of 4.07 nM.
With `Cc1cc(Nc2nc(N[C@@H]3C[C@H]4CCC[C@@H](C3)N4S(=O)(=O)c3ccccn3)nc3sccc23)n[nH]1` [Embodiment 267] the IC50 (TYK2) was 0.39 nM, the Cmax ([1]; colon) was 1270 ng/mL and the AUC(0-t) ([1]; colon) was 5610 ng·h/mL. It also gave an MRT ([1]; colon) of 4.4 h, a Tmax ([1]; colon) of 5 h and a Cmax ([1]; ileum) of 12200 ng/mL. For the same compound, the AUC(0-t) ([1]; ileum) was 20700 ng·h/mL, the AUC(0-inf) ([1]; ileum) was 20700 ng·h/mL and the half-life ([1]; ileum) was 0.53 h. It also gave an MRT ([1]; ileum) of 1.24 h, a Tmax ([1]; ileum) of 1 h and an IC50 (JAK1) of 0.13 nM. It also gave an IC50 [2] of 18 nM.
Work on `Cc1cc(Nc2nc(N[C@@H]3C[C@H]4CC[C@@H](C3)N4CCC#N)nc3c2cnn3C)n[nH]1` [Embodiment 295, 3-((3-exo)-3-((1-methyl-4-((5-methyl-1H-pyrazol-3-yl)amino)-1H-pyrazolo[3,4-d]pyrimidin-6-yl)amino)-8-azabicyclo[3.2.1]oct-8-yl)propionitrile] yielded an IC50 (TYK2) of 10.8 nM, a Cmax ([1]; plasma, blood) of 6.54 ng/mL and an AUC(0-t) ([1]; plasma, blood) of 10.4 ng·h/mL. It also gave an MRT ([1]; plasma, blood) of 1.77 h, a Tmax ([1]; plasma, blood) of 2 h and a Cmax ([1]; colon) of 1030 ng/mL. For the same compound, the AUC(0-t) ([1]; colon) was 3390 ng·h/mL, the MRT ([1]; colon) was 3.82 h and the Tmax ([1]; colon) was 3 h. The Cmax ([1]; ileum) was 4300 ng/mL, the AUC(0-t) ([1]; ileum) was 10700 ng·h/mL and the MRT ([1]; ileum) was 2.69 h. The Tmax ([1]; ileum) was 3 h, the IC50 (JAK1) was 0.3 nM and the IC50 [2] was 3.63 nM.
